Tests used:
[1] = system: A. matricariae; assay: Direct contact test on pupae (Table 26); type: in vivo
Description: Mature pupae of A. matricariae on paprika leaves in Petri-dishes are exposed to a direct spray of the active ingredients. Two or three days before emergence paprika leaves with parasitized pupae are used. The leaves are laid on moistened filter paper in a plastic Petri-dish.
Application of treatment: See Example 57.
The pieces of leaf are transferred after treatment to clean Petri-dish bottoms. The trays are stored in a climatic chamber at 20° C. temperature, 70% relative humidity and a light-dark cycle of 16-8 h. Surviving pupae hatch after 2-3 days. The numbers of hatched and dead pupae are counted.

[2] = system: L. decemlineata; assay: 5 EC formulations sprayed on glass plates (Table 20); type: in vivo, imagos; conditions: 5 EC formulation, 48 hours
Description: (§1) The 5 EC formulations prepared according to Example 42 are diluted 50x, 100x, 200x, 400x, 800x and 1600x with water and 0.5 ml doses are sprayed onto glass plates. After drying 10 L. decemlineata imagos are placed on each glass plate and the insects are covered with Petri-dishes. The tests are carried out by using 6 doses and 3 parallels for each dose. The killed insects are counted after 48 hours.

[3] = system: Myzus persicae; assay: 5 EC formulations on aphid-infected bean plants (Table 22); type: in vivo, green peach aphids (Myzus persicae)
Description: 15 bean plants infected with green peach aphids (Myzus persicae) at 6 days' age are cultivated in each pot. At 12 days' age the strongly and uniformly infected plants are selected and sprayed to run-off with emulsions freshly prepared from the formulation according to Example 42. Treatments are carried out with three doses (active ingredient 2.5, 5 and 10 ppm) and four parallels are used (one pot per parallel). The second, fourth and eighth day after treatment the aphids are swept down from the plants to a white paper with a fine brush and the live insects are counted.

[4] = system: Acanthoscelides obtectus; assay: 5 EC formulations sprayed on glass plates (Table 21); type: in vivo, bean weevil (Acanthoscelides obtectus), imagos; conditions: 5 EC formulation, 24 hours, 1440 min
Description: as §1
Glass plates are sprayed with 5 EC formulations prepared according to Example 42 in an analogous manner to Example 52. After drying 10 bean weevil (Acanthoscelides obtectus) imagos are placed on each plate and the insects are covered with Petri-dishes. The killed insects are counted after 24 hours. The test is carried out with 6 doses by using 3 parallels for each dose.

[5] = system: Colorado potato beetle; assay: Plot field test on Colorado potato beetle (Table 24); type: in vivo, adults; conditions: 10 g active ingredients/ha
Description: The treatments are performed on a 25 m^2 plot strongly infected with Colorado potato beetle. 10 plants per plot are specially marked on which the Colorado potato beetles were counted previously. (During assessment of the number of pests only adults of the second Summer generation are taken into consideration, because at the point of time of the test the ratio of larvae of stages L3 and L4 is negligible). Treatment is accomplished on 25 M^2 plots at a dose of 10 g of active ingredients/ha with aqueous suspensions of the formulations according to Example 37 and three parallels are used. The test is evaluated by counting the leave insects on the marked plants. The average values of three parallel tests are disclosed in Table 24.

[6] = Acute toxicity on rats and selectivity index; conditions: rat, in vivo
Excerpt: The said selectivity index of the enantiomer-pair Ia amounts to 50/0.45=111.
In addition to the synergistic effect the composition of the present invention has a number of further advantages too and for this reason it is an outstanding product. It is very important that the compositions of the present invention are less toxical towards mammals than the hitherto known compositions of similar efficiency. […] The said selectivity index of Ia amounts to 50/0.45=111.

[7] = system: A. matricariae; assay: Residual contact test on adults (Table 4); type: in vivo, Aphidinus matricariae, adult females
Description: Adults of A. matricariae are exposed to residues of the active ingredients freshly applied on glass plates forming cages then the survivors are counted.
Treatments: test products(s) and control treated with water.
Replicates: at least 3. Plot size (net) 1 cage.
Parasites of known age 24 hours are used.
The products are applied at 5-1 ppm concentration, to each of the glass plates.
10 females of A. matricariae are introduced into each cage and supplied with honey as food. The number of females surviving exposure is determined after 1.5 and 24 hours, in independent runs. Total number of survivors is calculated for each cage.

[8] = system: Acanthoscelides obtectus; assay: Impregnated filter paper disc contact test, mortality (Table 1); type: in vivo, bean weevil (Acanthoscelides obtectus), imago
Description: (§2) The stereoisomers are dissolved in a 1:2 mixture of mineral oil and acetone and filter paper discs (Whatman No. 1., diameter 9 cm) are impregnated with the corresponding dosage of the solution of the active ingredient. The acetone is allowed to evaporate and the insects are examined on filter paper discs placed into Petri-dishes. Three parallels are used for each dose and 15 animals are placed in each Petri-dish. Mortality rate is determined after 24 hours. The corrected mortality % data are calculated by means of the Abbot formula.

[9] = system: tribolium confusum; assay: as above; type: in vivo, flour-beetle (tribolium confusum), imago
Description: as §2

[10] = system: Lucilia sericata; assay: as above; type: in vivo, sheep maggot fly (Lucilia sericata), imago
Description: as §2

SMILES: CC1(C)C(C=C(Cl)Cl)C1C(=O)OC(C#N)c1cccc(Oc2ccccc2)c1 (centres unmarked) [Ia:Ib = 4:6]
- Mortality % ([1]; 1 ppm): 0%
- Mortality % ([1]; 5 ppm): 0%
- Mortality % ([1]; 10 ppm): 0%
- Mortality % ([1]; 33 ppm): 14.3%
- Mortality % ([2]; dilution 50x, 2880 min): 93%
- Mortality % ([2]; dilution 100x, 2880 min): 80%
- Mortality % ([2]; dilution 200x, 2880 min): 73%
- Mortality % ([2]; dilution 400x, 2880 min): 53%
- Mortality % ([2]; dilution 800x, 2880 min): 33%
- Mortality % ([2]; dilution 1600x): 0%
- Average number of aphids per pot ([3]; 2.5 ppm, 2 days after treatment (control 1850)): 38
- Average number of aphids per pot ([3]; 2.5 ppm, 4 days after treatment (control 2780)): 71
- Average number of aphids per pot ([3]; 2.5 ppm, 8 days after treatment (control 4120)): 251
- Average number of aphids per pot ([3]; 5.0 ppm, 2 days after treatment (control 1850)): 21
- Average number of aphids per pot ([3]; 5.0 ppm, 4 days after treatment (control 2780)): 32
- Average number of aphids per pot ([3]; 5.0 ppm, 8 days after treatment (control 4120)): 82
- Average number of aphids per pot ([3]; 10.0 ppm, 2 days after treatment (control 1850)): 10
- Average number of aphids per pot ([3]; 10.0 ppm, 4 days after treatment (control 2780)): 11
- Average number of aphids per pot ([3]; 10.0 ppm, 8 days after treatment (control 4120)): 21
- Mortality % ([4]; dilution 50x): 70%
- Mortality % ([4]; dilution 100x): 53%
- Mortality % ([4]; dilution 200x): 37%
- Mortality % ([4]; dilution 400x): 30%
- Mortality % ([4]; dilution 800x): 17%
- Mortality % ([4]; dilution 1600x): 10%
- Average number of live insects/10 plants ([5]; 0 days after treatment (control 211)): 213
- Average number of live insects/10 plants ([5]; 1 day after treatment (control 206)): 8
- Average number of live insects/10 plants ([5]; 3 days after treatment (control 179)): 4
- Average number of live insects/10 plants ([5]; 9 days after treatment (control 183)): 22

SMILES: CC1(C)[C@H](C=C(Cl)Cl)[C@H]1C(=O)O[C@H](C#N)c1cccc(Oc2ccccc2)c1 (relative stereo) [Ib]
- LD50 ([6]; po, rats, p.o., read-out: approximate LD50 toxicity): ~5000 mg/kg
- selectivity ratio ([6]; quotient of approximate LD50 values on rats and house fly): 7800
- Mortality % ([7]; 1 ppm, 1h): 0%
- Mortality % ([7]; 1 ppm, 5h): 75%
- Mortality % ([7]; 1 ppm, 24h): 88%
- Mortality % ([7]; 5 ppm, 1h): 100%
- mortality at 20 µg/disc ([8]; Acanthoscelides obtectus, 0.02 mg/disc, 24 hours, Abbot corrected): 32%
- mortality at 70 µg/disc ([8]; Acanthoscelides obtectus, 0.07 mg/disc, 24 hours, Abbot corrected): 55%
- mortality at 220 µg/disc ([8]; Acanthoscelides obtectus, 0.22 mg/disc, 24 hours, Abbot corrected): 87%
- mortality at 670 µg/disc ([8]; Acanthoscelides obtectus, 0.67 mg/disc, 24 hours, Abbot corrected): 100%
- mortality at 2000 µg/disc ([8]; Acanthoscelides obtectus, 2.0 mg/disc, 24 hours, Abbot corrected): 100%
- mortality at 6000 µg/disc ([8]; Acanthoscelides obtectus, 6.0 mg/disc, 24 hours, Abbot corrected): 100%
- comparative activity ([8]; Ib versus Ia): more active than enantiomer-pair Ia
- comparative activity ([9]; Ib versus Ia): more active than enantiomer-pair Ia
- mortality at 20 µg/disc ([9]; Tribolium confusum, 0.02 mg/disc, 24 hours, Abbot corrected): 14%
- mortality at 70 µg/disc ([9]; Tribolium confusum, 0.07 mg/disc, 24 hours, Abbot corrected): 73%
- mortality at 220 µg/disc ([9]; Tribolium confusum, 0.22 mg/disc, 24 hours, Abbot corrected): 100%
- mortality at 670 µg/disc ([9]; Tribolium confusum, 0.67 mg/disc, 24 hours, Abbot corrected): 100%
- mortality at 2000 µg/disc ([9]; Tribolium confusum, 2.0 mg/disc, 24 hours, Abbot corrected): 100%
- mortality at 6000 µg/disc ([9]; Tribolium confusum, 6.0 mg/disc, 24 hours, Abbot corrected): 100%
- comparative activity ([10]; Ib versus Ia): more active than enantiomer-pair Ia
- mortality at 20 µg/disc ([10]; Lucilia sericata, 0.02 mg/disc, 24 hours, Abbot corrected): 22%
- mortality at 70 µg/disc ([10]; Lucilia sericata, 0.07 mg/disc, 24 hours, Abbot corrected): 55%
- mortality at 220 µg/disc ([10]; Lucilia sericata, 0.22 mg/disc, 24 hours, Abbot corrected): 70%
- mortality at 670 µg/disc ([10]; Lucilia sericata, 0.67 mg/disc, 24 hours, Abbot corrected): 75%
- mortality at 2000 µg/disc ([10]; Lucilia sericata, 2.0 mg/disc, 24 hours, Abbot corrected): 100%
- mortality at 6000 µg/disc ([10]; Lucilia sericata, 6.0 mg/disc, 24 hours, Abbot corrected): 100%

From patent US5110976A, “Insecticidal composition comprising more than one active ingredient” (priority 1985, dated 1992)
